Measurements from patent EP4268824A1 (Manros Therapeutics, priority 2022, dated 2023).
Where two headings read alike, the source gives them in different places.

Tests used:
[1] = target: kinase; settings: Bettayeb et al. 2008; Popowycz et al. 2009; cited from earlier work
[2] = Bettayeb et al. 2008; Popowycz et al. 2009; cited from earlier work
[3] = target: T1, F508del-CFTR (Homo sapiens, UniProt P13569, DEL508-508); test: CFTR activation assay: short-circuit current measurements (Ussing chamber) in CFBE cells treated 24 h with CFTR modulator(s) plus compound; assay type: cell-based; settings: for F508del-CFTR activity as percentage of F508del-CFTR activity in the presence of Trikafta alone (100%): CFE cells, with Trikafta
T1 construct: expressed in transfected cells; host or cells: CFBE41o- cells (CFBE F508del-CFTR), puromycin-selected
Protocol: • FIG 1. represents the conductance measurement as a function of time for assessing the activity of F508del-CFTR in CFBE cells using the Ussing chamber as set forth in example 13. Cells are incubated for 24 hours with either Trikafta® alone or Trikafta® + a compound of formula (I) as defined herein after. Conductance is measured as a function of time. […] This is the measure which are reported in all Tables shown below. • FIG 2. The correcting effect of Trikafta® on F508del-CFTR in a pulmonary epithelial cell line derived from a F508del-CFTR CF patient was tested as set forth in example 13 herein after in the presence of increasing concentrations of compound (44) as defined herein after and compound (107) as defined herein after. Dose-response curves were built from the activation and inhibition data (see FIG. 1). 100% represents the activity of Trikafta® alone. • FIG 3. […] CFE cells were treated with Trikafta® 100%, 33%, or 11%, in the absence or presence of 1 µM of compound (107). F508del-CFTR activity was monitored as described in the Experimental section and above. Activity is reported as percentage of δF508del-CFTR activity in the presence of Trikafta® alone (100%). The fold change over the activity of Trikafta® alone is indicated in parentheses. • FIG 4. The correcting effect of further CFTR modulators than Trikafta®, i.e. Galapagos compounds as defined herein after (GLPG 222 (G1), GLPG 1837 (G2), GLPG 2451 (G3)) (1 µM each) on F508del-CFTR in a pulmonary epithelial cell line derived from a F508del-CFTR CF patient was tested as set forth in example 13 herein after in the presence of increasing concentrations of compound (107) as defined herein after. Dose-response curves were built from the activation and inhibition data (see FIG. 1). 100% represents the activity of each CFTR modulator alone.
The activity of F508del-CFTR was indeed estimated according to the method described below in example 13. This method makes use of CFBE cells, an immortalized cell line generated from bronchial epithelium of a CF patient homozygous for F508del-CFTR [Kunzelmann, K. et al., 1993. An immortalized cystic fibrosis tracheal epithelial cell line homozygous for the F508del CFTR mutation. Am. J. Respir. Cell Mol. Biol. 8, 522-529.]. Cells are exposed for 24 hours to a combination of Trikafta® and a compound of formula (I) as defined herein after to be evaluated, and the activity of F508del-CFTR is measured by conductance in a Ussing chamber. The activation is initiated by addition of Forskolin (1 µM). […] All compounds tested were evaluated in combination with Trikafta®. In most instances, compounds were tested in triplicates at 0.1, 1 and 10 µM.
Wild-type CFBE cells (containing full-length, unmutated CFTR) are used as a reference.
F508del-CFTR expressing cells used in this present study were treated with CFTR modulators 24 h prior the experiments. The following CFTR modulators were used: Vx770 (Ivacaftor) (Selleckchem, S 1144) (Selleckchem, 24, rue des Tuileries, BP684, 67460 Souffelweyersheim, France), Vx445 (Elexacaftor) (Selleckchem, SE-S8851), Vx661 (Tezacaftor) (TargetMol, HY-15448) (TargetMol, Tebu-bio, 39 rue de Houdan, BP 15, 78612 Le-Perray-en-Yvelines cedex, France). Trikafta® is the combination of 1 µM Vx770, 3 µM Vx 445 and […] Vx661.
CFBE cell line stably expressing F508del-CFTR or WT-CFTR (CFBE WT-CFTR) were grown at 37°C in 5% CO2 - 95% air and media was replaced every 2 days.

[4] = target: CDK2 (Homo sapiens, UniProt P24941); test: Kinase inhibition, dose-response; assay type: biochemical; settings: > 10: no inhibition at 10 µM, the highest dose tested
Protocol: (§1) All compounds were additionally tested over a range of concentrations for their ability to inhibit a series of 14 kinases. IC50 values were calculated from the dose-response curves and are reported in µM. > 10, no inhibition at 10 µM, the highest dose tested (see table 6 below). [drawing 409] Table 5: CFE cells were treated with Trikafta in the presence of increasing concentrations of various compounds and their N7-methylated counterparts. Their F508del-CFTR activity is reported as percentage of F508del-CFTR activity in the presence of Trikafta alone (100%).

[5] = target: CDK7 (Homo sapiens, UniProt P50613); test: Kinase inhibition, dose-response; assay type: biochemical; settings: > 10: no inhibition at 10 µM, the highest dose tested
Sequence of CDK7 (P50613 whole entry, species assumed): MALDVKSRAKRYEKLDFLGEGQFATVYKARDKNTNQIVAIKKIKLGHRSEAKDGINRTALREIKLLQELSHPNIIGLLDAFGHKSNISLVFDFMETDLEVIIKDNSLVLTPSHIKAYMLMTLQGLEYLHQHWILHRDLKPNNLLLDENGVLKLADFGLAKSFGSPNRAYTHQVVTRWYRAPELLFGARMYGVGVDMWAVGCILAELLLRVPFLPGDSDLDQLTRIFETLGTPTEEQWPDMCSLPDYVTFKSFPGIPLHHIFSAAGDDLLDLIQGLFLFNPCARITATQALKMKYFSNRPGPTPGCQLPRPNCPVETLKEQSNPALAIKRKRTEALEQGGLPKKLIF
Sequence of CDK7 (P51946 whole entry partner, species assumed): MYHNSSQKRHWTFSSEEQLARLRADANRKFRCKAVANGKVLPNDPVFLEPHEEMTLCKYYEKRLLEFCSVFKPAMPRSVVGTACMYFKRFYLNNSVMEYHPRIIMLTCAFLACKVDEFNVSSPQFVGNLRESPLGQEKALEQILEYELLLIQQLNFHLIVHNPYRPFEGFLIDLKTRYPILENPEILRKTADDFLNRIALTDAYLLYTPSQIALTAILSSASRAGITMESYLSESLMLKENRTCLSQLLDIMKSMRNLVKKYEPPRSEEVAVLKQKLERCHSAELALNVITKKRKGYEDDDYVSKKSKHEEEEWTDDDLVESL
Sequence of CDK7 (P51948 whole entry partner, species assumed): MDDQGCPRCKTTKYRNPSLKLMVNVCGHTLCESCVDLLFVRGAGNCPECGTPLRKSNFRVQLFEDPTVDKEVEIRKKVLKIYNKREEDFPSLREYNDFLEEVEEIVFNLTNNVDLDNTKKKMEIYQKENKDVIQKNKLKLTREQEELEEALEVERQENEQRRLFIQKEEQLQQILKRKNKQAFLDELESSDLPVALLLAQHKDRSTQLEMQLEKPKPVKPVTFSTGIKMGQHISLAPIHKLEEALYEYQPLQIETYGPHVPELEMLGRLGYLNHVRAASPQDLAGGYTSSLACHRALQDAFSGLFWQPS
Protocol: as §1

[6] = target: CDK9 (Homo sapiens, UniProt P50750); test: Kinase inhibition, dose-response; assay type: biochemical; settings: > 10: no inhibition at 10 µM, the highest dose tested
Protocol: as §1

[7] = target: CK1α1 (Homo sapiens, UniProt P48729); test: Kinase inhibition, dose-response; assay type: biochemical; settings: > 10: no inhibition at 10 µM, the highest dose tested
Sequence of CK1α1 (P48729 whole entry): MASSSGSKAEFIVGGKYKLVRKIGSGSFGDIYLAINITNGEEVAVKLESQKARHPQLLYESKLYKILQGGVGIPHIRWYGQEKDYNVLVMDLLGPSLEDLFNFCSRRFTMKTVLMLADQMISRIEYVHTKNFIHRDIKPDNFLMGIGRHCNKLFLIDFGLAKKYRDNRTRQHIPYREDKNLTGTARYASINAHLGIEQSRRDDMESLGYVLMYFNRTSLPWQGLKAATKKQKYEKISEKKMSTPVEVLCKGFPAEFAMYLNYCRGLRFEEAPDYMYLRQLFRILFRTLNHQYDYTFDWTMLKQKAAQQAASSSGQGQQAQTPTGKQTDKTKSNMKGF
Protocol: as §1

[8] = target: CK1γ1 (Homo sapiens, UniProt Q9HCP0); test: Kinase inhibition, dose-response; assay type: biochemical; settings: > 10: no inhibition at 10 µM, the highest dose tested
Sequence of CK1γ1 (Q9HCP0 whole entry): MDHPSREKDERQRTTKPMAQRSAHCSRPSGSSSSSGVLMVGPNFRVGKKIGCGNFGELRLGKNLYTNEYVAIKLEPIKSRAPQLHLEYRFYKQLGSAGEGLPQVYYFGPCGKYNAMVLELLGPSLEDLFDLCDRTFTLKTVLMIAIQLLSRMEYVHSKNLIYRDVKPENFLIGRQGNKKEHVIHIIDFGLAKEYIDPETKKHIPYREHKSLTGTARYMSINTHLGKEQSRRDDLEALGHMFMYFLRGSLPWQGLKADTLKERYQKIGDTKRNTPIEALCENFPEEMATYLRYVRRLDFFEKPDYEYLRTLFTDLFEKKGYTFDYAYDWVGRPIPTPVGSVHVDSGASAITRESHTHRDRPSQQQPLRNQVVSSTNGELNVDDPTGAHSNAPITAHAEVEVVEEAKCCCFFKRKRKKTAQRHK
Protocol: as §1

[9] = target: CK1γ2 (Homo sapiens, UniProt P78368); test: Kinase inhibition, dose-response; assay type: biochemical; settings: > 10: no inhibition at 10 µM, the highest dose tested
Sequence of CK1γ2 (P78368 whole entry): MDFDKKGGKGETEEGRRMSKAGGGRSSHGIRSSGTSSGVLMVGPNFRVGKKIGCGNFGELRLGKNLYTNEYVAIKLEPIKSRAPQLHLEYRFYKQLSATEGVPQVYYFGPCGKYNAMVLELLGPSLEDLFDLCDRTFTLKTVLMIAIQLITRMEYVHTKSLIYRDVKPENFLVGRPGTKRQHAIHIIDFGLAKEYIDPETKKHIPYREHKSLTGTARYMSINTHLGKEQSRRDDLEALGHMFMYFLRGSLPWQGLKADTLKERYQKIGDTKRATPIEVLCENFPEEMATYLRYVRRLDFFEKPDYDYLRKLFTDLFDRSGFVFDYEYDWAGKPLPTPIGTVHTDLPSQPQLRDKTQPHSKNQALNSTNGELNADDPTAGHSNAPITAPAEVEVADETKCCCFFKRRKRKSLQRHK
Protocol: as §1

[10] = target: CK1γ3 (Homo sapiens, UniProt Q9Y6M4); test: Kinase inhibition, dose-response; assay type: biochemical; settings: > 10: no inhibition at 10 µM, the highest dose tested
Sequence of CK1γ3 (Q9Y6M4 whole entry): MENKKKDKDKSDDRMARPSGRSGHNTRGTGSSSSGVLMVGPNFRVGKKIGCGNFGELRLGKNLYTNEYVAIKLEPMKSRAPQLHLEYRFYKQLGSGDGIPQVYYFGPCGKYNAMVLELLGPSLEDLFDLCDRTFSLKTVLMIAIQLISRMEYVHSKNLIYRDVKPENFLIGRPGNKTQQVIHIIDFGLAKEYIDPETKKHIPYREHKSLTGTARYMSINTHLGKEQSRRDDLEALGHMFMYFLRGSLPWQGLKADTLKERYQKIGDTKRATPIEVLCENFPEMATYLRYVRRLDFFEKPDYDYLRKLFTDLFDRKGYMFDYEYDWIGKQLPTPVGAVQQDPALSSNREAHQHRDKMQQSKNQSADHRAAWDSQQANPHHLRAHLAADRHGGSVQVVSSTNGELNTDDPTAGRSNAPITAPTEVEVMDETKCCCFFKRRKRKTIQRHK
Protocol: as §1

[11] = target: CK1δ (Homo sapiens, UniProt P48730); test: Kinase inhibition, dose-response; assay type: biochemical; settings: > 10: no inhibition at 10 µM, the highest dose tested
Sequence of CK1δ (P48730 whole entry): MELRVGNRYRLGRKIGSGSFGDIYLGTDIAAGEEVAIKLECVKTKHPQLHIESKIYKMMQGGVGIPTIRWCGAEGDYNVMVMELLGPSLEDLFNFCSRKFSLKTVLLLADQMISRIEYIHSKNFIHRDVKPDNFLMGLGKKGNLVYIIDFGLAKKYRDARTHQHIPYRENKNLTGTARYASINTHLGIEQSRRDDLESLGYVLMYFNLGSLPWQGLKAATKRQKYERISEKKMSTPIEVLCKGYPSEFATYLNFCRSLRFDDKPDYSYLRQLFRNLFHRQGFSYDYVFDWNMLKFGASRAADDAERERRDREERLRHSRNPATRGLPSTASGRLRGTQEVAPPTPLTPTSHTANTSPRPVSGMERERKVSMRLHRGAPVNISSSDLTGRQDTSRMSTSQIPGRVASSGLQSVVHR
Protocol: as §1

[12] = target: CK1ε (Homo sapiens, UniProt P49674); test: Kinase inhibition, dose-response; assay type: biochemical; settings: > 10: no inhibition at 10 µM, the highest dose tested
Sequence of CK1ε (P49674 whole entry): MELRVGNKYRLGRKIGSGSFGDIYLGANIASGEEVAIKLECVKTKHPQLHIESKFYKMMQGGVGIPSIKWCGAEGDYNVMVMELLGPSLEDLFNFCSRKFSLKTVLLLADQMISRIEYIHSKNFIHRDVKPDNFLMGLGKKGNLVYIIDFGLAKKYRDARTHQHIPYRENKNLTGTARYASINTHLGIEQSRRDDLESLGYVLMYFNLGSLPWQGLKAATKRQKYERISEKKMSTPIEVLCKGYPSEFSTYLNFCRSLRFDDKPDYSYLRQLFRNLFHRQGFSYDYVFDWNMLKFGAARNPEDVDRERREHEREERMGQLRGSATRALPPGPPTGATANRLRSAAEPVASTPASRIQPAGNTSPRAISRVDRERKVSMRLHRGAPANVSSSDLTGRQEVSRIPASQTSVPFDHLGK
Protocol: as §1

[13] = target: CLK1 (Homo sapiens, UniProt P49759); test: Kinase inhibition, dose-response; assay type: biochemical; settings: > 10: no inhibition at 10 µM, the highest dose tested
Sequence of CLK1 (P49759 whole entry): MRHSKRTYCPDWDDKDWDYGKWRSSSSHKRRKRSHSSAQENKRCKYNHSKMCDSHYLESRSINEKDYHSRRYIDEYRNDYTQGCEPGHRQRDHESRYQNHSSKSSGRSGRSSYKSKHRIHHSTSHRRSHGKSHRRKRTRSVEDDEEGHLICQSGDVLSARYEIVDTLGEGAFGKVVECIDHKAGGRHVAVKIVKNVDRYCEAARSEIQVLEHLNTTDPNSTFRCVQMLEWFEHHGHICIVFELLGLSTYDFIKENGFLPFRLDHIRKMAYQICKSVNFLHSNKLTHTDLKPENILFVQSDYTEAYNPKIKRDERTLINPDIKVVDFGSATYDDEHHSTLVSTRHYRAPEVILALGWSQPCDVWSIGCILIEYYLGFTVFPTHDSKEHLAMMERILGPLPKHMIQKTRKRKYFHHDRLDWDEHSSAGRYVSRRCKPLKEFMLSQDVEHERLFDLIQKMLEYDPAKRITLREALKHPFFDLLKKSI
Protocol: as §1

[14] = target: CLK2 (Homo sapiens, UniProt P49760); test: Kinase inhibition, dose-response; assay type: biochemical; settings: > 10: no inhibition at 10 µM, the highest dose tested
Protocol: as §1

[15] = target: CLK3 (Homo sapiens, UniProt P49761); test: Kinase inhibition, dose-response; assay type: biochemical; settings: > 10: no inhibition at 10 µM, the highest dose tested
Sequence of CLK3 (P49761 whole entry, species assumed): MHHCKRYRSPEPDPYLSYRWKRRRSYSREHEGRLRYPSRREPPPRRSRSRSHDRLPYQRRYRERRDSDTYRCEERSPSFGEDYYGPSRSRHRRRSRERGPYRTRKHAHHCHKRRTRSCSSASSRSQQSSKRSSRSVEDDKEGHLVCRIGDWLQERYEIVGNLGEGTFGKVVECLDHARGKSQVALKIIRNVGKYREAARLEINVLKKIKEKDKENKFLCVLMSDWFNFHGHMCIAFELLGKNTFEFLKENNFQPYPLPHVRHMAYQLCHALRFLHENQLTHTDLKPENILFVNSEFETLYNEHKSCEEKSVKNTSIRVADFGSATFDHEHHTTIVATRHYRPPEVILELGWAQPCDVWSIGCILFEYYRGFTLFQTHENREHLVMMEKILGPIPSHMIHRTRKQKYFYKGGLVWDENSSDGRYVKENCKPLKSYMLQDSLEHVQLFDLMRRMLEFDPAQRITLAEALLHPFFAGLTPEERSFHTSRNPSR
Protocol: as §1

[16] = target: DYRK1A (Homo sapiens, UniProt Q13627); test: Kinase inhibition, dose-response; assay type: biochemical; settings: > 10: no inhibition at 10 µM, the highest dose tested
Protocol: as §1

[17] = target: CLK4 (Homo sapiens, UniProt Q9HAZ1); test: Kinase inhibition, dose-response; assay type: biochemical
Sequence of CLK4 (Q9HAZ1 whole entry, species assumed): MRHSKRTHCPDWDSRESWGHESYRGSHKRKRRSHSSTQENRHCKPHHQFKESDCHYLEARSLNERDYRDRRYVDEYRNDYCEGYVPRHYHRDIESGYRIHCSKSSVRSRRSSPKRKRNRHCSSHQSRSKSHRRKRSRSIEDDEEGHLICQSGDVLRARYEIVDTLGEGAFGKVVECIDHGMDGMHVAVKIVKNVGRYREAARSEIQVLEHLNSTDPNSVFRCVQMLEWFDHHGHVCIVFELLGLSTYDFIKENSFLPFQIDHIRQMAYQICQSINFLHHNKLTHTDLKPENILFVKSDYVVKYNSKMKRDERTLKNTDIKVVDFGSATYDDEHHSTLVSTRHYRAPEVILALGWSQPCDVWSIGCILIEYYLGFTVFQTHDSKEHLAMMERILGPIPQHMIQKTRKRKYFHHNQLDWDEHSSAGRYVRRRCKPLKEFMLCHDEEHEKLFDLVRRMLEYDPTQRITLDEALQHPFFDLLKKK
From the text: All compounds were additionally tested over a range of concentrations for their ability to inhibit a series of 14 kinases. […] Their F508del-CFTR activity is reported as percentage of F508del-CFTR activity in the presence of Trikafta alone (100%).

[18] = test system: F508del-CFTR; settings: Norez et al. 2014; cited from earlier work
[19] = test system: alveolar macrophages; settings: Riazanski et al. 2015; cited from earlier work
[20] = read-out: IC50 CLK4; > 10: no inhibition at 10 µM, the highest dose tested

| SMILES | F508del-CFTR activity as percentage of F508del-CFTR activity in the presence of Trikafta alone (100%) ([3]; concentration 0.1 µM) [%] | F508del-CFTR activity as percentage of F508del-CFTR activity in the presence of Trikafta alone (100%) ([3]; concentration 1 µM) [%] | F508del-CFTR activity as percentage of F508del-CFTR activity in the presence of Trikafta alone (100%) ([3]; concentration 10 µM) [%] | IC50 [4] [µM] | IC50 [5] [µM] | IC50 [6] [µM] | IC50 [7] [µM] | IC50 [8] [µM] | IC50 [9] [µM] | IC50 [10] [µM] | IC50 [11] [µM] | IC50 [12] [µM] | IC50 [13] [µM] | IC50 [14] [µM] | IC50 [15] [µM] | IC50 [16] [µM] | IC50 [17, 20] [µM] | also measured |
| --- | --- | --- | --- | --- | --- | --- | --- | --- | --- | --- | --- | --- | --- | --- | --- | --- | --- | --- |
| CC[C@H](CO)Nc1nc(NCc2ccccc2)c2ncc(C(C)C)n2n1 [compound 6, (2R)-2-[[4-(Benzylamino)-7-isopropyl-imidazo[2,1-f][1,2,4]triazin-2-yl]amino]butan-1-ol] | – | – | – | – | – | – | – | – | – | – | – | – | – | – | – | – | – | kinase inhibitory activity [1]: modest kinase inhibitory activity; antitumor properties [2]: modest antitumor properties |
| CC(C)c1cnc2c(NCc3ccccc3)nc(N[C@@H]3CCOC3)nn12 [compound 19, N4-Benzyl-7-isopropyl-N2-[(3R)-tetrahydrofuran-3-yl]imidazo[2,1-f][1,2,4]triazine-2,4-diamine] | 112.0 | 122.2 | 155.6 | 1.28 | 0.496 | 3.18 | > 10 | > 10 | > 10 | > 10 | 0.594 | 1.32 | 1.17 | 1.05 | > 10 | > 10 | – | IC50 ([17]; > 10: no inhibition at 10 µM, the highest dose tested; read-out: IC50 CLK4): 1.84 µM |
| CC(C)c1cnc2c(N(C)Cc3ccccc3)nc(N[C@@H]3CCOC3)nn12 [compound 32] | 117.9 | 113.7 | 135.1 | > 10 | > 10 | > 10 | > 10 | > 10 | > 10 | > 10 | > 10 | > 10 | > 10 | > 10 | > 10 | > 10 | > 10 | – |
| CC(C)c1cnc2c(N(C)Cc3ccccc3)nc(NC3CCOCC3)nn12 [compound 49] | 113.0 | 125.9 | 147.1 | > 10 | > 10 | > 10 | > 10 | > 10 | > 10 | > 10 | > 10 | > 10 | > 10 | > 10 | > 10 | > 10 | > 10 | – |
| CC[C@H](CO)Nc1nc(NCc2ccccc2)c2ncn(C(C)C)c2n1 [roscovitine] | – | – | – | – | – | – | – | – | – | – | – | – | – | – | – | – | – | activating or boosting activity on a human lung epithelium cell line with F508del-CFTR mutation, in combination with Trikafta® ([3]; result in words): no activating or boosting activity; correction of the defective function of F508del-CFTR [18]: partially correct the defective function of F508del-CFTR; intra-phagolysosomal pH of alveolar macrophages [19]: reduce the intra-phagolysosomal pH of alveolar macrophages |
